Results published in ChEMBL document CHEMBL1128489, “Novel hexakis(areneisonitrile)technetium(I) complexes as radioligands targeted to the multidrug resistance P-glycoprotein” (J Med Chem, 1995).

Columns and labels:
Conditions in all cases: in vivo, 0.5 h
Rattus norvegicus [1] = assay: Biodistribution values represent the mean % id/organ for paired rats 30 min post intravenous injection complex in Spleen; type: ADME, organism-based
Rattus norvegicus [2] = assay: Biodistribution values represent the mean % id/organ for paired rats 30 min post intravenous injection complex in Adrenal; type: ADME, organism-based
Rattus norvegicus [3] = assay: Biodistribution values represent the mean % id/organ for paired rats 30 min post intravenous injection complex in Blood; type: ADME, organism-based
Rattus norvegicus [4] = assay: Biodistribution values represent the mean % id/organ for paired rats 30 min post intravenous injection complex in Bone; type: ADME, organism-based, Bone element
Rattus norvegicus [5] = assay: Biodistribution values represent the mean % id/organ for paired rats 30 min post intravenous injection complex in Brain; type: ADME, organism-based
Rattus norvegicus [6] = assay: Biodistribution values represent the mean % id/organ for paired rats 30 min post intravenous injection complex in Fat; type: ADME, organism-based
Rattus norvegicus [7] = assay: Biodistribution values represent the mean % id/organ for paired rats 30 min post intravenous injection complex in GI; type: ADME, organism-based
Rattus norvegicus [8] = assay: Biodistribution values represent the mean % id/organ for paired rats 30 min post intravenous injection complex in Heart; type: ADME, organism-based
Rattus norvegicus [9] = assay: Biodistribution values represent the mean % id/organ for paired rats 30 min post intravenous injection complex in Kidney; type: ADME, organism-based
Rattus norvegicus [10] = assay: Biodistribution values represent the mean % id/organ for paired rats 30 min post intravenous injection complex in Skin; type: ADME, organism-based
Rattus norvegicus [11] = assay: Biodistribution values represent the mean % id/organ for paired rats 30 min post intravenous injection complex in Liver; type: ADME, organism-based
Rattus norvegicus [12] = assay: Biodistribution values represent the mean % id/organ for paired rats 30 min post intravenous injection complex in Lungs; type: ADME, organism-based, Lung
Rattus norvegicus [13] = assay: Biodistribution values represent the mean % id/organ for paired rats 30 min post intravenous injection complex in Muscles; type: ADME, organism-based, Muscle tissue

| Substance | ID/organ (Rattus norvegicus [1]) [%] | ID/organ (Rattus norvegicus [2]) [%] | ID/organ (Rattus norvegicus [3]) [%] | ID/organ (Rattus norvegicus [4]) [%] | ID/organ (Rattus norvegicus [5]) [%] | ID/organ (Rattus norvegicus [6]) [%] | ID/organ (Rattus norvegicus [7]) [%] | ID/organ (Rattus norvegicus [8]) [%] | ID/organ (Rattus norvegicus [9]) [%] | ID/organ (Rattus norvegicus [10]) [%] | ID/organ (Rattus norvegicus [11]) [%] | ID/organ (Rattus norvegicus [12]) [%] | ID/organ (Rattus norvegicus [13]) [%] |
| --- | --- | --- | --- | --- | --- | --- | --- | --- | --- | --- | --- | --- | --- |
| Hexakis[4-Cyanobenzeneisonitrile]technetium Complex | 2.47 | 0.03 | 9.89 | 4.9 | 0.03 | 0.37 | 2.99 | 0.13 | 1.23 | 1.23 | 75.7 | 2.2 | 3.84 |
| Hexakis[4-Acetylbenzeneisonitrile]technetium Complex | 2.28 | 0.06 | 1.13 | 4.27 | 0.01 | 0.07 | 3.15 | 0.03 | 0.66 | 0.7 | 92.7 | 1.73 | 0.68 |
| Hexakis[2-Methoxy-5-nitrobenzeneisonitrile]technetium Complex | 1.25 | 0.04 | 14.1 | 9.58 | 0.04 | 0.55 | 19.4 | 0.35 | 2.74 | 2.88 | 32.5 | 0.51 | 6.82 |
| Hexakis[3,4,5-Trimethoxy-alpha-tolueneisonitrile]technetium Complex | 0.13 | 0.04 | 0.59 | 2.29 | 0.01 | 0.17 | 65.1 | 0.17 | 3.83 | 0.76 | 39.2 | 0.61 | 3.02 |
| Hexakis[3,4-Dimethoxybenzeneisonitrile]technetium Complex | 4.5 | 0.07 | 3.92 | 4.38 | 0.02 | 0.4 | 2.44 | 0.13 | 0.61 | 1.07 | 87.7 | 1.89 | 4.67 |
| Hexakis[2-(4-Methoxyphenyl)ethaneisonitrile]technetium Complex | 2.94 | 0.03 | 0.79 | 3.44 | 0 | 0.26 | 1.86 | 0.15 | 0.19 | 0.41 | 81.1 | 3.93 | 1.99 |
| Hexakis[3-(hydroxymethyl)benzeneisonitrile]technetium Complex | 1.85 | 0.05 | 3.39 | 3.6 | 0.01 | 0.2 | 13.8 | 0.12 | 2.98 | 0.62 | 62.2 | 0.63 | 2.99 |
| Hexakis[3,5-Dimethoxy-alpha-tolueneisonitrile]technetium Complex | 3.35 | 0.04 | 5.06 | 3.63 | 0.02 | 0.2 | 2.22 | 0.12 | 0.3 | 0.43 | 75.9 | 0.87 | 1.82 |
| Hexakis[3,4-Dimethoxy-alpha-tolueneisonitrile]technetium Complex | 0.34 | 0.07 | 3.27 | 4.72 | 0.02 | 0.21 | 33.5 | 0.1 | 2.25 | 1.35 | 44.2 | 1.22 | 2.48 |
| Hexakis[5-Methoxy-2-methyl-4-nitrobenzeneisonitrile]technetium Complex | 3.05 | 0.03 | 6.88 | 5.59 | 0.03 | 0.32 | 3.96 | 0.14 | 1.13 | 0.77 | 71.9 | 0.72 | 1.28 |
| Hexakis[4-Methoxy-alpha-tolueneisonitrile]technetium Complex | 2.45 | 0.03 | 4.56 | 2.73 | 0.02 | 0.24 | 3.31 | 0.08 | 0.45 | 0.58 | 85.6 | 1.31 | 1.92 |
| Hexakis[3,4-(Methylenedioxy)benzeneisonitrile]technetium Complex | 1.82 | 0.05 | 1.45 | 4.73 | 0.01 | 0.08 | 0.38 | 0.03 | 0.12 | 0.19 | 91.8 | 2.62 | 0.47 |
| Hexakis[3-Acetamidobenzeneisonitrile]technetium Complex | 1.5 | 0.02 | 0.87 | 3.48 | 0.01 | 0.03 | 2.12 | 0.03 | 0.38 | 0.17 | 86.9 | 1.45 | 0.53 |

Now from value to substance:

| ID/organ (Rattus norvegicus [1]) [%] | ID/organ (Rattus norvegicus [2]) [%] | ID/organ (Rattus norvegicus [3]) [%] | ID/organ (Rattus norvegicus [4]) [%] | ID/organ (Rattus norvegicus [5]) [%] | ID/organ (Rattus norvegicus [6]) [%] | ID/organ (Rattus norvegicus [7]) [%] | ID/organ (Rattus norvegicus [8]) [%] | ID/organ (Rattus norvegicus [9]) [%] | ID/organ (Rattus norvegicus [10]) [%] | ID/organ (Rattus norvegicus [11]) [%] | ID/organ (Rattus norvegicus [12]) [%] | ID/organ (Rattus norvegicus [13]) [%] | Substance |
| --- | --- | --- | --- | --- | --- | --- | --- | --- | --- | --- | --- | --- | --- |
| 0.28 | 0.01 | 9.44 | 5.74 | 0.03 | 0.51 | 42.9 | 0.17 | 5.21 | 5.3 | 13.8 | 0.37 | 7.61 | Hexakis[3-Nitrobenzeneisonitrile]technetium Complex |
| 2.78 | 0.07 | 4.19 | 4.29 | 0.01 | 0.26 | 5.75 | 0.15 | 0.61 | 0.6 | 73.8 | 3.04 | 3.9 | Hexakis[3,4-(Methylenedioxy)-alpha-tolueneisonitrile]technetium Complex |
| 1.5 | 0.12 | 0.93 | 5.11 | 0.01 | 0.19 | 24.5 | 0.38 | 10 | 1.33 | 44.2 | 0.43 | 4.84 | Hexakis[2-(3,4,5-Trimethoxyphenyl)ethaneisonitrile]technetium Complex |
| 1.91 | 0.04 | 3 | 2.96 | 0.02 | 0.14 | 15.7 | 0.07 | 1.26 | 0.82 | 77.5 | 1.1 | 1.77 | Hexakis[2-(3,4-Dimethoxyphenyl)ethaneisonitrile]technetium Complex |
| 2.25 | 0 | 0.5 | 1.53 | 0.01 | 0.11 | 3.12 | 0.03 | 0.49 | 0.26 | 92.5 | 1.83 | 0.74 | Hexakis[3,5-Dimethoxybenzeneisonitrile]technetium Complex |
| 1.12 | 0.03 | 19.2 | 8.79 | 0.06 | 1.26 | 10.1 | 0.33 | 4.84 | 3.65 | 38 | 1.06 | 6.87 | Hexakis[4-Nitrobenzeneisonitrile]technetium Complex |
